Reference: ChEMBL document CHEMBL1629509, “Design, synthesis and inhibitory activity against Mycobacterium tuberculosis thymidine monophosphate kinase of acyclic nucleoside analogues with a distal imidazoquinolinone” (Eur J Med Chem, 2010)
Activity calls are given as the source filed them. No cut-off for these calls is given here.

test system: Mycobacterium tuberculosis variant bovis BCG; assay: Antimycobacterial activity against Mycobacterium bovis BCG Pasteur assessed as growth inhibition at 160 ug/ml by resazurin microtiter plate assay; assay type: functional, organism-based

SMILES | Activity
Cc1cn(C/C=C/Cn2c(=O)n3c4c(cc(N)cc42)CCC3)c(=O)[nH]c1=O | inactive
Cc1cn(C/C=C/Cn2c(=O)n3c4c(cccc42)CCC3)c(=O)[nH]c1=O | inactive
Cc1cn(C/C=C/Cn2c(=O)n3c4c(cccc42)CC(N)C3)c(=O)[nH]c1=O (configuration not stated) | inactive
CC(=O)Nc1cc2c3c(c1)n(C/C=C/Cn1cc(C)c(=O)[nH]c1=O)c(=O)n3CCC2 | inactive
O=c1[nH]c(=O)n(C/C=C/CN2c3cccc4c3N(CCC4)S2(=O)=O)cc1Br | inactive
Cc1cn(C/C=C/CN2c3cccc4c3N(CCC4)S2(=O)=O)c(=O)[nH]c1=O | inactive
CC(=O)NC1Cc2cccc3c2n(c(=O)n3C/C=C/Cn2cc(C)c(=O)[nH]c2=O)C1 (configuration not stated) | inactive
